# Where a SMILES comes first, the peptide text is derived from it. The star is where a group is joined. Cbz = O=C(OCc1ccccc1)*
# Assays:
# [1] = tested on: HeLa H2B-GFP cells; type: cell-based, human; details: double thymidine synchronized, drugs 10 hrs after release; proTAME 3 μM; MG132 concentration not given
# Description: To determine whether proTAME treatment can enhance mitotic arrest and cell death induced by taxol or a proteasome inhibitor (MG132), HeLa H2B-GFP cells were co-treated with low doses of the microtubule poison Taxol or the proteasome inhibitor MG132 in combination with a low dose of proTAME.
# Unsychronized HeLa H2B-GFP cells were treated with DMSO (control), taxol 10 nM or proTAME 3 μM or a combination of Taxol 10 nM and proTAME 3 μM (FIG. 26). The cells were imaged by FITC fluorescence microscopy to monitor the cell cycle and mitotic events.
# To analyze interactions between proTAME and a proteasome inhibitor (FIG. 27), HeLa H2B-GFP cells were synchronized by double thymidine block (2 mM thymidine block for 18 hrs, release in medium for 8 hrs 2 mM thymidine block for 18 hrs), and treated with the drugs 10 hrs after release from the block as the cells just entered mitosis.
# [2] = tested on: HeLa H2B-GFP cells; assay: Live cell imaging of mitotic duration and cell fate; type: cell-based, human
# Description: Detailed siRNA transfection and drug treatment schemes are described in supplemental experimental procedures. HeLa H2B-GFP cells were plated in DMEM with 10% FBS at 20% confluence. […] Live cell imaging was performed at 12 minute intervals on a Nikon TE2000E PFS inverted microscope fitted with an incubation chamber maintained at 37° C. and supplied with 5% CO2. Cell division was tracked by manual inspection of movies, and mitotic duration was measured as the time between the first frame of chromosome condensation and the frame of chromosome segregation (anaphase), decondensation (mitotic exit without anaphase) or cell death (chromosomes shrinking to a small bright dot).
# The imaging plate was mounted onto a motorized stage (Prior ProScan II) on a Nikon TE2000E PFS inverted microscope fitted with an incubation chamber maintained at 37° C. and supplied with 5% CO2. […] TIFF files of each image were exported from Elements and used to build stacks and Quicktime movies with Metamorph imaging software (Molecular Devices). For manual analysis, mitotic duration is counted as the time between the first frame of chromosome condensation and the frame of chromosome segregation (anaphase) or decondensation (mitotic exit in the presence of nocodazole) or cell death (chromosomes shrinking to a small bright dot).
# HeLa H2B-GFP cells were plated in a 24-well plate in DMEM 10% FBS at 20% confluence one day prior to experiment and synchronized by double thymidine block as described above. […] Live cell imaging was set up as described above.
# HeLa H2B-GFP cells were plated in a 24-well plate in DMEM+10% FBS at 20% confluence one day prior to the experiment and synchronized by double thymidine block as described above. The cells were released from the first thymidine block into 200 μl OptiMem without FBS. Transfection was performed immediately after the first thymidine release. […] The two mixtures were left at room temperature for 5 min before being mixed together and incubated for additional 20 min and then added to the cells to a final volume of 250 μl. 4 h after transfection, 250 μl of DMEM+20% FBS were added to cells.
# HeLa H2B-GFP cells were plated in glass-bottom 24-well plates at 20% confluence one day prior to the experiment and synchronized by double thymidine block as described above. […] Cells were treated with 100 nM Hesperadin or DMSO 8 h after release from the second thymidine block and live cell imaging was set up as described above.
# HeLa H2B-GFP cells were plated in a 24-well plate in DMEM+10% FBS at 20% confluence one day prior to experiment and synchronized by double thymidine block as synchronized above. […] Live cell imaging was set up as described above.
# HeLa H2B-GFP cells were plated in a 24-well plate in DMEM+10% FBS at 20% confluence one day prior to experiment and synchronized by double thymidine block as described above. […] Untreated cells were used as the control. Live cell imaging was set up as described above. […] Alternatively, at 10 h after release from the second block, 10 μM MG132 with or without 25 μg/ml cycloheximide was added to the cells. […] Live cell imaging was set up as described above.
# HeLa H2B-GFP cells were plated in a 24-well plate in DMEM+10% FBS at 20% confluence one day prior to experiment and synchronized by double thymidine block as described above. Mad2 siRNA transfection was performed as described above. At 10 h after release from the second block, 10 μM MG132 with or without 25 μg/ml cycloheximide was added to the cells. Live cell imaging was set up as described above. Manual analysis was focused only on cells that entered mitosis after MG132 addition.
# [3] = tested on: HeLa cells; assay: Live imaging of HeLa cells expressing Histone 2B-GFP (Examples 1 and 2); type: cell-based, human; details: 3 μM MG132
# From the text: Cumulative frequency curves of mitotic duration were plotted.
# The same experiment in 1B was done with proAAME.
# Synchronized HeLa cells were transfected with Mad2/control siRNA followed by drug treatments. Cumulative frequency curves of mitotic duration were plotted.
# Asynchronous HeLa cells were transfected with Mad2 or control siRNA.
# For comparison, the curves obtained in H2B-GFP fluorescent imaging experiment shown in FIG. 1B were plotted on the same graph.
# [4] = tested on: HeLa H2B-GFP cells; assay: Chromosome congression analysis; type: cell-based, human
# Description: HeLa H2B-GFP cells were plated in 35 mm glass-bottom dishes (MatTek) in DMEM+10% FBS at 20% confluence one day prior to the experiment and synchronized by double thymidine block as described above. Drugs were added as follows to a final volume of 3 ml from 2× concentrated preparation in culture medium. DMSO (0.06%), proTAME (3 and 12 μM) or 10 nM Nocodazole were added 8 h after release from the second block, while MG132 (10 μM) was added at 10 h. H2B-GFP was imaged for 4 hrs every 3 min at 40× magnification as described above.
# [5] = molecular target: T1, APC (Homo sapiens, UniProt P30260); assay: Cdc20/Cdh1 binding assay in HeLa cells; type: cell-based; details: 12 μM, HeLa released from nocodazole block
# T1 construct: endogenous in cells; host or cells: HeLa cells (synchronised; in some experiments also Mad2/BubR1 siRNA and cyclin B1Δ107 adenovirus)
# Description: HeLa cells in DMEM 10% FBS were plated in T25 flasks at 20% confluence one day prior to the experiment. They were then synchronized by a double thymidine block (18 h for the first block, 8 h release and another 18 h for the second block, thymidine concentration: 2 mM). For analysis of Cdh1 binding, cells were released into […] from the second thymidine block for 13 h and then washed into fresh medium. Six h later, cells were treated with 12 μM proTAME or […] or 0.06% DMSO for 2 h and then collected by trypin digrestion. For analysis of Cdc20 binding, cells were transfected with indicated siRNAs during the first release from thymidine block after two washes with DPBS (CellGro 21-030-CV) and addition of 6.3 ml OptiMEM. A volume (79 μl) of 20 μl Control siRNA#3 or a 1:1 mix of 20 μl MAD2 siRNA and BubR1 siRNA (Dharmacon D-004101-01, 5′-[…]-3′ (SEQ ID NO: 11)) was mixed in 1381 μl OptiMEM in a tube, 23.7 μl OligoFectamine were mixed with 94.1 μl OptiMEM in a second tube. After 5 min incubation at RT, the tubes contents were mixed and siRNA-reagent complexes were allowed to form for 20 min at RT. The transfection mixes were added to cells in OptiMEM and FBS was added to 10% after 5 h transfection. Cyclin B1-4107 expressing adenovirus (1:100) was added at the start of the second thymidine block and kept in the medium for all subsequent steps. […]
# [6] = tested on: hTERT-RPE1 H2B-GFP cells; assay: Live cell imaging of mitotic duration in hTERT-RPE1 cells; type: cell-based
# Description: FIG. 18A is a graph and table showing that proTAME induces a mitotic delay in hTERT-RPE1 H2B-GFP cells. Asynchronous hTERT-RPE1 H2B-GFP cells were treated with 0.06% DMSO, 6 μM proTAME or 12 μM proAAME. Cells were imaged at 12 min interval. Cumulative frequency curves of mitotic duration and cell fate distribution are shown.
# The imaging plate was mounted onto a motorized stage (Prior ProScan II) on a Nikon TE2000E PFS inverted microscope fitted with an incubation chamber maintained at 37° C. and supplied with 5% CO2. A 20× Plan Apo 0.75 NA or 40× Plan Fluor 0.75 NA objective lens was used as indicated and images were collected with 2×2 binning DIC or GFP fluorescent images were taken every 12 min (unless otherwise specified) for 36 h with a Hamamatsu ORCA cooled CCD camera and Nikon Elements Software. TIFF files of each image were exported from Elements and used to build stacks and Quicktime movies with Metamorph imaging software (Molecular Devices). For manual analysis, mitotic duration is counted as the time between the first frame of chromosome condensation and the frame of chromosome segregation (anaphase) or decondensation (mitotic exit in the presence of nocodazole) or cell death (chromosomes shrinking to a small bright dot).
# [7] = tested on: cyclin B1-GFP; assay: Exogenous cyclin-GFP expression, live-cell imaging and quantitation (cyclin B1-GFP); type: cell-based, human; details: HeLa H2B-RFP; 20 μM proTAME or proAAME, 150 nM nocodazole
# Description: (§1) HeLa H2B-RFP cells were transduced with cyclin B1-GFP or cyclin A2-GFP adenovirus for 40 h. Phenol Red-Free DMEM (Mediatech) supplemented with 10% FBS and 1:100 Penicillin-Streptomycin-Glutamine (Mediatech) was used as imaging medium. 20 μM proTAME, […] or 150 nM nocodazole was added 45 min prior to the start of imaging. Live cell imaging was set up as described above except that the cells were plated in an 8-well chambered coverglasses (NUNC Lab-tek 155411). Four positions per treatment group were imaged with DIC transmitted light, red fluorescence, and green fluorescence (Semrock GFP/HcRed “Pinkel” filter set) at 12 min intervals for 24 h. Stacks of red and green fluorescence were merged, saved as AVI video files and analyzed using ImageJ. For quantitation, the first GFP-positive cells that undergo mitosis in three separate movies were chosen, giving at least 30 cells quantitated for each treatment group. Mean intensity values for the green channel were collected for a cytoplasmic region of a cell upon mitotic entry, mitotic exit, or after 1 h of mitotic arrest. At the same time points, background mean green intensity was determined and individually subtracted from the cytoplasmic mean intensity. This background corrected mean intensity value was then used to determine the percentage of the original GFP signal remaining at the completion of division (for the control cells) or after 1 h of mitotic arrest (for the nocodazole and proTAME treated cells). The average values for all quantitated cells were plotted with the error bars representing standard error of the mean.
# [8] = tested on: cyclin A2-GFP; assay: Exogenous cyclin-GFP expression, live-cell imaging and quantitation (cyclin A2-GFP); type: cell-based, human; details: HeLa H2B-RFP; 20 μM proTAME or proAAME, 150 nM nocodazole
# Description: as §1
# [9] = proTAME 12 μM, MG132 10 μM, Nocodazole 10 nM
# [10] = asynchronous hTERT-RPE1 H2B-GFP, proAAME 12 μM, proTAME 6 μM
# [11] = 12 μM, double thymidine synchronized, added 8 h after release
# T1 sequence (P30260 whole entry): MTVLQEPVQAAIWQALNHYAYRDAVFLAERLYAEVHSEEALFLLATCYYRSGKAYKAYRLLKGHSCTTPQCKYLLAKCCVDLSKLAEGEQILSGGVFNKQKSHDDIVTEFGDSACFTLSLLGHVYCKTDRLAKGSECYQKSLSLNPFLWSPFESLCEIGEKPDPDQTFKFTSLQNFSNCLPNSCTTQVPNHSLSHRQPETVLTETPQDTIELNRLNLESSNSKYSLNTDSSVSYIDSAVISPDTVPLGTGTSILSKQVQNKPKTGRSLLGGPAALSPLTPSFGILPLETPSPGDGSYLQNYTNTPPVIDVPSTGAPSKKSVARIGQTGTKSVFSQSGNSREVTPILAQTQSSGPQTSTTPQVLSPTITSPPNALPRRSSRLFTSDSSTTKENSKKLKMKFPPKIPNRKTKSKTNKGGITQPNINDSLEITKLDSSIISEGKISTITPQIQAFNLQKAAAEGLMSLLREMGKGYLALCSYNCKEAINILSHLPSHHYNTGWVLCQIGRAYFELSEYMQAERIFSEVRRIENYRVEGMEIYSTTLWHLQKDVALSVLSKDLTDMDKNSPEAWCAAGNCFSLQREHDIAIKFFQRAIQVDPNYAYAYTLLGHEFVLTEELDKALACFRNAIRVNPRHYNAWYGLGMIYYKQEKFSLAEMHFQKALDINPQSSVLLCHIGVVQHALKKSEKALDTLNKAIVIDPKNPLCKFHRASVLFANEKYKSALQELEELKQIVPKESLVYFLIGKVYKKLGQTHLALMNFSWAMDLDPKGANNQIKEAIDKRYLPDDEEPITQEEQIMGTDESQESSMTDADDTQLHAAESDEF
Structure (SMILES),Median mitotic delay / arrest [1] [min],"Cells that exited mitosis during the 30 h experiment ([2]; 3 μM MG132, control cells) [%]",Time a normal-appearing metaphase plate is maintained ([2]; MG132 alone),Mad2-dependence of mitotic arrest [3],Delay in chromosome congression (in words) ([4]; 3 μM proTAME or 10 μM MG132),"Average chromosome congression time (prophase to full metaphase congression) [4, 9] [min]","Median chromosome congression time (prophase to full metaphase congression) [4, 9] [min]",Cdh1 association with the APC in G1 cells [5],"Average mitotic duration [6, 10] [min]","Median mitotic duration [6, 10] [min]",Median mitotic duration ([6]; proAAME-treated hTERT-RPE1 cells) [min],Mitotic phenotype ([2]; 12 μM),"Average mitotic duration [2, 11] [min]","Median mitotic duration [2, 11] [min]",Average cyclin B1-GFP intensity remaining at 60 min vs onset of mitosis [7] [fraction remaining],Median cyclin B1-GFP intensity remaining at 60 min vs onset of mitosis [7] [fraction remaining],Average cyclin A2-GFP intensity remaining at 60 min vs onset of mitosis [8] [fraction remaining],Median cyclin A2-GFP intensity remaining at 60 min vs onset of mitosis [8] [fraction remaining]
"CC(C)C[C@@H](C=O)NC(=O)[C@H](CC(C)C)NC(=O)[C@H](CC(C)C)NC(=O)OCc1ccccc1 [MG132, reference compound] (Cbz-Leu-Leu-Leu-aldehyde)",276,10,over 5 h,partially dependent on Mad2,no delay in chromosome congression,21.6,21,–,–,–,–,–,–,–,–,–,–,–
"COC(=O)[C@H](CC(C)N=C(NC(=O)OCOC(=O)Cc1ccccc1)NC(=O)OCOC(=O)Cc1ccccc1)NC(C)=O (stereo partly drawn) [proAAME, methyl(S)-2-(acetyl)amino-4-[[bis[[[[(phenylacetyl)oxy]methoxy]carbonyl]amino]methylene]amino]pentanoate]",–,–,–,–,–,–,–,did not,32.1,36,24,no effect,100.5,84,0.15,0.15,0.08,0.06

# Reference: patent US20130230458A1, “Cell Permeable Inhibitors of Anaphase Promoting Complex” (PRESIDENT AND FELLOWS OF HARVARD COLLEGE, priority 2010, published 2013)
